T/C data for 14 compounds are collected here from PubChem BioAssay AID248 (DTP/NCI, 2004).

The test deals with L1210 leukemia ip in BDF1 mice, survival T/C. Briefly: NCI In Vivo Anticancer Drug Screen. Data for tumor model L1210 Leukemia (intraperitoneal) in B6D2F1 (BDF1) mice. The note with it: endpoint: mean survival time, higher = longer survival. In short, it runs like this:
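Antitumor effect is assessed in tumor-bearing animals. Survival in the compound arm is compared with a vehicle-dosed control arm and expressed as their quotient.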

The mark [1] stands for this setting: dose: 25.0 mg/kg/injection, schedule: Q04DX003 (ip), vehicle: Klucel (hydroxypropylcellulose) (HPC).
Setting [2] is: dose: 50.0 mg/kg/injection, schedule: Q04DX003 (ip), vehicle: Klucel (hydroxypropylcellulose) (HPC).
Where [3] appears, read: dose: 100.0 mg/kg/injection, schedule: Q01DX009 (ip), vehicle: other.
[4] abbreviates: dose: 200.0 mg/kg/injection, schedule: Q01DX009 (ip), vehicle: other.
The mark [5] stands for this setting: dose: 400.0 mg/kg/injection, schedule: Q01DX009 (ip), vehicle: other.

Where “and” joins values, the source holds several entries; their conditions need not be identical. Identical values can stand only once. Toxic doses and inconclusive results are not listed.

For the compound `COc1cc([N+](=O)[O-])cc(C=O)c1O`, the T/C reads like this: under setting [1], 92 % of control; under setting [2], 92 % of control; (dose: 100.0 mg/kg/injection, schedule: Q04DX003 (ip), vehicle: Klucel (hydroxypropylcellulose) (HPC)) 96 % of control and 101 % of control.

For `CC(C)=CCC(C#N)(CCN1CCCCC1)c1cccc2ccccc12` (stereo not given), the T/C runs as follows: (dose: 12.5 mg/kg/injection, schedule: Q04DX003 (ip), vehicle: Klucel (hydroxypropylcellulose) (HPC)) 99 % of control; under setting [1], 103 % of control; under setting [2], 100 % of control.

For the compound `CC(=O)N(C)c1ccccc1`, the T/C (dose: 100.0 mg/kg/injection, schedule: Q04DX002 (ip), vehicle: saline) is 99 % of control.

For the compound `CC(=O)C1=CC(=O)c2ccccc2C1=O`, the T/C is 103 % of control (dose: 20.0 mg/kg/injection, schedule: Q01DX001 (ip), vehicle: water); 95 % of control (dose: 40.0 mg/kg/injection, schedule: Q01DX001 (ip), vehicle: water); 93 % of control (dose: 80.0 mg/kg/injection, schedule: Q01DX001 (ip), vehicle: water).

`CC[n+]1cccc(NC(=O)c2ccc(NC(=O)c3ccc(C(=O)Nc4ccc5c(ccc[n+]5CC)c4)cc3)cc2)c1`: the T/C is, setting by setting: (dose: 0.12 mg/kg/injection, schedule: Q01DX015 (oral), vehicle: alkali diluted with saline) 90 % of control; (dose: 0.25 mg/kg/injection, schedule: Q01DX015 (oral), vehicle: alkali diluted with saline) 90 % of control; (dose: 0.5 mg/kg/injection, schedule: Q01DX015 (oral), vehicle: alkali diluted with saline) 101 % of control; (dose: 0.55 mg/kg/injection, schedule: Q01DX Z (ip), vehicle: carboxymethylcellulose (CMC)) 107 % of control; (dose: 1.0 mg/kg/injection, schedule: Q01DX015 (oral), vehicle: alkali diluted with saline) 112 % of control; (dose: 2.2 mg/kg/injection, schedule: Q01DX Z (ip), vehicle: carboxymethylcellulose (CMC)) 181 % of control. The T/C is 164 % of control (dose: 3.0 mg/kg/injection, schedule: Q01DX015 (ip), vehicle: alkali diluted with saline); 165 % of control (dose: 4.4 mg/kg/injection, schedule: Q01DX Z (ip), vehicle: carboxymethylcellulose (CMC)); 120 % of control (dose: 6.0 mg/kg/injection, schedule: Q01DX015 (ip), vehicle: alkali diluted with saline); 113 % of control (dose: 10.0 mg/kg/injection, schedule: Q01DX Z (ip), vehicle: carboxymethylcellulose (CMC)); 118 % of control (dose: 11.0 mg/kg/injection, schedule: Q01DX001 (ip), vehicle: alkali diluted with saline); 110 % of control (dose: 15.0 mg/kg/injection, schedule: Q01DX Z (ip), vehicle: carboxymethylcellulose (CMC)). Also, the T/C is, setting by setting: (dose: 16.0 mg/kg/injection, schedule: Q01DX001 (ip), vehicle: alkali diluted with saline) 150 % of control; (dose: 25.0 mg/kg/injection, schedule: Q01DX015 (ip), vehicle: alkali diluted with saline) 102 % of control.

For the compound `CCOC(=O)Nc1cccc(OC(=O)NC)c1`, the T/C is 100 % of control (dose: 100.0 mg/kg/injection, schedule: Q04DX003 (ip), vehicle: saline with Tween-80); 107 % of control (dose: 200.0 mg/kg/injection, schedule: Q04DX003 (ip), vehicle: saline with Tween-80); 89 % of control (dose: 400.0 mg/kg/injection, schedule: Q04DX003 (ip), vehicle: saline with Tween-80).

For the compound `OC1(Cc2ccccc2)CCCCCC1`, the T/C (dose: 100.0 mg/kg/injection, schedule: Q01DX005 (ip), vehicle: other) was 118 % of control; the T/C under setting [3] is 103 % of control; the T/C (dose: 200.0 mg/kg/injection, schedule: Q01DX005 (ip), vehicle: other) is 93 % of control; the T/C under setting [4] is 118 % of control; the T/C (dose: 400.0 mg/kg/injection, schedule: Q01DX005 (ip), vehicle: other) was 93 % of control; the T/C under setting [5] is 100 % of control.

Regarding `CCOC(=O)C1=C(OCOC)CCC(C(C)(C)C)C1` (stereo not given), the T/C reads like this: (dose: 100.0 mg/kg/injection, schedule: Q01DX001 (ip), vehicle: Klucel (hydroxypropylcellulose) (HPC)) 92 % of control; (dose: 200.0 mg/kg/injection, schedule: Q01DX001 (ip), vehicle: Klucel (hydroxypropylcellulose) (HPC)) 98 % of control.

As to `O=S1(=O)C2CCCCC2(N2CCOCC2)C1c1ccccc1` (stereo not given), the T/C runs as follows: (dose: 66.0 mg/kg/injection, schedule: Q04DX003 (ip), vehicle: other) 118 % of control; under setting [3], 97 % of control; (dose: 100.0 mg/kg/injection, schedule: Q04DX003 (ip), vehicle: other) 101 % of control and 202 % of control; (dose: 150.0 mg/kg/injection, schedule: Q04DX003 (ip), vehicle: other) 93 % of control; under setting [4], 97 % of control; (dose: 200.0 mg/kg/injection, schedule: Q04DX003 (ip), vehicle: other) 97 % of control. Further, the T/C runs as follows: under setting [5], 100 % of control; (dose: 400.0 mg/kg/injection, schedule: Q04DX003 (ip), vehicle: other) 94 % of control.

With `CCCCNC(=O)c1cc(NC(=O)Nc2ccc(C3=NCCN3)cc2)cc(NC(=O)Nc2ccc(C3=NCCN3)cc2)c1`, the T/C runs as follows: (dose: 8.0 mg/kg/injection, schedule: Q01DX Z (ip), vehicle: carboxymethylcellulose (CMC)) 122 % of control; (dose: 16.0 mg/kg/injection, schedule: Q01DX Z (ip), vehicle: carboxymethylcellulose (CMC)) 117 % of control; (dose: 62.0 mg/kg/injection, schedule: Q01DX Z (ip), vehicle: carboxymethylcellulose (CMC)) 122 % of control; (dose: 125.0 mg/kg/injection, schedule: Q01DX Z (ip), vehicle: carboxymethylcellulose (CMC)) 122 % of control; (dose: 250.0 mg/kg/injection, schedule: Q01DX Z (ip), vehicle: carboxymethylcellulose (CMC)) 110 % of control.

As to `Cc1c(C(=O)NN)sc2ccccc12`, the T/C was 100 % of control (dose: 5.0 mg/kg/injection, schedule: Q01DX001 (ip), vehicle: saline); 97 % of control (dose: 10.0 mg/kg/injection, schedule: Q01DX001 (ip), vehicle: saline); 100 % of control (dose: 20.0 mg/kg/injection, schedule: Q01DX001 (ip), vehicle: saline); 97 % of control (dose: 40.0 mg/kg/injection, schedule: Q01DX001 (ip), vehicle: saline); 94 % of control (dose: 80.0 mg/kg/injection, schedule: Q01DX001 (ip), vehicle: saline).

For `Cc1ccc(Cl)cc1NC(=O)Nc1ccc(F)c([N+](=O)[O-])c1`, the T/C by setting is: (dose: 12.5 mg/kg/injection, schedule: Q01DX009 (ip), vehicle: saline with Tween-80) 95 % of control and 90 % of control; (dose: 25.0 mg/kg/injection, schedule: Q01DX009 (ip), vehicle: saline with Tween-80) 88 % of control and 92 % of control; (dose: 25.0 mg/kg/injection, schedule: Q04DX003 (ip), vehicle: saline with Tween-80) 90 % of control; (dose: 50.0 mg/kg/injection, schedule: Q01DX009 (ip), vehicle: saline with Tween-80) 92 % of control; (dose: 50.0 mg/kg/injection, schedule: Q04DX003 (ip), vehicle: saline with Tween-80) 87 % of control; (dose: 100.0 mg/kg/injection, schedule: Q04DX002 (ip), vehicle: saline with Tween-80) 96 % of control and 89 % of control. Also, the T/C runs as follows: (dose: 200.0 mg/kg/injection, schedule: Q01DX009 (ip), vehicle: saline with Tween-80) 93 % of control and 100 % of control; (dose: 200.0 mg/kg/injection, schedule: Q04DX002 (ip), vehicle: saline with Tween-80) 101 % of control and 91 % of control; (dose: 400.0 mg/kg/injection, schedule: Q01DX009 (ip), vehicle: saline with Tween-80) 93 % of control and 104 % of control; (dose: 400.0 mg/kg/injection, schedule: Q04DX002 (ip), vehicle: saline with Tween-80) 93 % of control and 94 % of control.

Regarding `CCOc1ccc(NC(=O)c2ccccc2Cl)cc1`, the T/C is 98 % of control (dose: 100.0 mg/kg/injection, schedule: Q01DX009 (ip), vehicle: Klucel (hydroxypropylcellulose) (HPC)); 95 % of control (dose: 200.0 mg/kg/injection, schedule: Q01DX009 (ip), vehicle: Klucel (hydroxypropylcellulose) (HPC)); 103 % of control (dose: 400.0 mg/kg/injection, schedule: Q01DX009 (ip), vehicle: Klucel (hydroxypropylcellulose) (HPC)).

For the compound `CCOC(=O)Nc1nn[nH]n1`, the T/C (dose: 50.0 mg/kg/injection, schedule: Q01DX001 (ip), vehicle: carboxymethylcellulose (CMC)) is 92 % of control; the T/C (dose: 100.0 mg/kg/injection, schedule: Q01DX001 (ip), vehicle: carboxymethylcellulose (CMC)) is 97 % of control; the T/C (dose: 200.0 mg/kg/injection, schedule: Q01DX001 (ip), vehicle: carboxymethylcellulose (CMC)) was 101 % of control; the T/C (dose: 400.0 mg/kg/injection, schedule: Q01DX001 (ip), vehicle: carboxymethylcellulose (CMC)) was 90 % of control.
